Measurements published in BigSolDB 2.1.

O=C(OCCO)c1ccc(C(=O)OCCO)cc1
solubility (mole fraction)
Conditions	283.15 K	288.15 K	293.15 K	298.15 K	303.15 K	308.15 K	313.15 K	318.15 K	323.15 K	328.15 K
in ethanol	0.000577	0.000802	0.00113	0.00141	0.00169	0.00249	0.00315	0.00395	0.00521	0.00656
in ethylene glycol	0.000174	0.000264	0.000391	0.000554	0.000859	0.00118	0.0018	0.00255	0.0037	0.00499
in methanol	0.000772	0.00104	0.00142	0.00184	0.00238	0.00329	0.00404	0.00517	0.00656	0.00815
in water	1.7e-05	2.4e-05	3.2e-05	4.2e-05	5.8e-05	7.7e-05	9.6e-05	0.000132	0.000171	0.000221
